From patent US20060121449A1, “Method for selection of compounds which inhibit clonal cell growth and use thereof” (priority 2002, published 2006)
Entries after “also recorded” stand apart in the source; their conditions may differ. Starred links: 1 amine or outer side, 2 acyl side, 3 side chain; linkers in the order of their positions; H or OH if unused. Positions of bridges follow the written chain, without caps; N, C: chain ends. Non-standard residues stand in square brackets, D forms with d. Residues, ends and D or L forms follow the SMILES beside them. Chains are numbered I, II in the order given. Actinocin(9to1) = Cc1c2oc3c(C)ccc(C(=O)[*:1])c3nc-2c(C(=O)[*:2])c(N)c1=O; NMeV = CN[C@H](C(=O)O)C(C)C; Sar = CNCC(=O)O

System: polyoma virus transformed BHK21/c13 cells, line S100T1
Experiment: Collocation inhibition test: clonal growth in sparsely and densely seeded areas of a cell density gradient of S100T1 cells in soft agar (Exp 13, 17, 19-26);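 note: soft agar cultures in 24-well plates with a cell density gradient in the top layer, compounds applied from DMSO stocks, clonal growth scored in sparse versus dense areas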;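 for Clonal growth, H high density area of cell gradient, High: grades rise with clonal growth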;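 for Clonal growth, H high density area of cell gradient, Low: grades rise with clonal growth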;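 for Clonal growth, H high density area of cell gradient, Medium: grades rise with clonal growth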;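 for Clonal growth, L low density area of cell gradient, High: grades rise with clonal growth and minus or plus-minus means none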;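 for Clonal growth, L low density area of cell gradient, Low: grades rise with clonal growth and minus or plus-minus means none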;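 for Clonal growth, L low density area of cell gradient, Medium: grades rise with clonal growth and minus or plus-minus means none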
Details: for Clonal growth, H: high density area of cell gradient, High / Clonal growth, L: low density area of cell gradient, High / Clonal growth, H: high density area of cell gradient, Low / Clonal growth, L: low density area of cell gradient, Low / Clonal growth, H: high density area of cell gradient, Medium / Clonal growth, L: low density area of cell gradient, Medium: 4-OH-OPB analogues, S100T1 in soft agar; for Clonal inhibition by 4-OH-OPB analogues, summary of Exp 22-25: sparsely seeded areas while densely seeded areas of the same culture showed significant growth; for Effect on clonal growth and toxicity: 117000 S100T1 cells/well; for Clonal growth, H high density area of cell gradient, High / Clonal growth, L low density area of cell gradient, High / Clonal growth, H high density area of cell gradient, Low / Clonal growth, L low density area of cell gradient, Low / Clonal growth, H high density area of cell gradient, Medium / Clonal growth, L low density area of cell gradient, Medium / Effect on cell cloning in soft agar: preliminary results; for Clonal growth, H high density area of cell gradient, High / Clonal growth, L low density area of cell gradient, High / Clonal growth, H high density area of cell gradient, Low / Clonal growth, L low density area of cell gradient, Low / Clonal growth, H high density area of cell gradient, Medium / Clonal growth, L low density area of cell gradient, Medium: Exp 13-18, 21-26; for Effect on cell cloning in soft agar: in words; for Resulting clonal growth of treated cultures: Experiment 26, read after 24 hours
[1] = Experiment 25, H: area with high cell density, Low concentration, after 48 hours incubation
[2] = Experiment 25, H: area with high cell density, Medium concentration, after 48 hours incubation
[3] = Experiment 25, L: area with low cell density, High concentration, after 48 hours incubation
[4] = Experiment 25, L: area with low cell density, Low concentration, after 48 hours incubation
[5] = Experiment 25, L: area with low cell density, Medium concentration, after 48 hours incubation
[6] = Summary Table 3 of analogue tests (experiments 22-25), H (high cell density), Low concentration
[7] = Summary Table 3 of analogue tests (experiments 22-25), H (high cell density), Medium concentration
[8] = Summary Table 3 of analogue tests (experiments 22-25), L (low cell density), High concentration
[9] = Summary Table 3 of analogue tests (experiments 22-25), L (low cell density), Low concentration
[10] = Summary Table 3 of analogue tests (experiments 22-25), L (low cell density), Medium concentration
[11] = Experiment 25, H: area with high cell density, High concentration, after 48 hours incubation
[12] = Exp 21, 117000 cells per well, Low concentration (see figure), H: area with high cell density
[13] = Exp 21, High concentration, H: area with high cell density
[14] = Exp 21, Low concentration, L: area with low cell density
[15] = Exp 21, Medium concentration, H: area with high cell density
[16] = Exp 21, Medium concentration, L: area with low cell density
[17] = H: area with high cell density, High concentration
[18] = H: area with high cell density, Low concentration
[19] = H: area with high cell density, Medium concentration
[20] = L: area with low cell density, High concentration
[21] = L: area with low cell density, Low concentration
[22] = L: area with low cell density, Medium concentration
[23] = Exp 19, 120000 S100T1 cells/well

Description: The cells should be grown in a top agar layer to avoid growth on the bottom surface. […] Both densely seeded and sparsely seeded areas were photographed.
Cells: The polyoma virus transformed offspring of BHK21/c13, S100T1, was grown on 75 cm^2 flasks on Eagles medium with 5% foetal calf serum. […] Foetal calf serum (0.7 ml) was added to each harvest. After low speed centrifugation the supernatant was discarded and the cells were dispersed in 1 ml FBS.
The concentration of ultra low gelling temperature agarose (Sigma) of the top agar layer with cells was also 0.8%. […] The addition of cells was performed at the same side of the wells in order to create similar cell density gradients. Finally the top layer agar was consolidated in the refrigerator.
After that it was incubated at 37 degrees in 5% CO2 atmosphere.
Agar cultures were prepared in Falcon 24 well tissue culture plate. Each well contained two agar layers of 0.3 ml.
Agar cultures were prepared in wells of Falcon 24 well tissue culture plate. Each contained two agar layers of 0.3 ml. […] The medium contained Eagles MEM and 10% foetal bovine serum (FBS).
The compounds were first solved in DMSO in 20 mM concentration and then diluted in medium. The top layer needed 60-90 minutes in the refrigerator for solidification before incubation in 37° C. with 5% CO2 atmosphere.
In this experiment the inhibitor was added to the bottom layer in order to get an easier way for making the cell density gradient. One side of the Falcon 24 well plate was elevated 12 degrees in the refrigerator for 60-90 minutes to solidify the bottom layer in an oblique position When then solidifying the cell containing top soft agar layer in horizontal position, the cell gradient constantly became good across the well. […] Another 90 minutes were spent in the refrigerator to consolidate the soft agar layer with cells in a horizontal position. Both layers contained 0.8% agarose, Eagles MEM and 10% FBS.
Tilting the plate 12 degrees when solidifying the bottom layer with the drug and casting the top layer with cells horizontally made a stable cell gradient.
The indicated compounds were added to soft agar cultures of the polyoma virus transformed cell line S100T1 of BHK21/c13 cells (Table 1). Agar cultures were prepared in wells of a Falcon 24 well tissue culture plate. The wells contained two agar layers of 0.3 ml. […] The bottom medium was identical, but without cells.
The compounds were first solved in DMSO in 20 mM concentration and then diluted in bottom medium. The agar layers needed 60-90 minutes in the refrigerator for consolidation before incubation at 37° C. in 5% CO2 atmosphere.

Molecule: 4-hydroxy-4-aldehyd-1,2-diphenyl-pyrazolidinedione [#10]
- Clonal growth, H: high density area of cell gradient, High (high concentration): ((+))
- Clonal growth, L: low density area of cell gradient, High (high concentration): −
- Clonal growth, H: high density area of cell gradient, Low (low concentration): ++
- Clonal growth, L: low density area of cell gradient, Low (low concentration): ++
- Clonal growth, H: high density area of cell gradient, Medium (medium concentration): ++
- Clonal growth, L: low density area of cell gradient, Medium (medium concentration): −
- Concentration inhibiting clonal growth of sparsely seeded cells without affecting densely seeded areas (Exp 25, medium concentration, 180000 S100T1 cells/well): about 50 μM
- Clonal growth [1]: ++
- Clonal growth [2]: ++
- Clonal growth [3]: −
- Clonal growth [4]: ++
- Clonal growth [5]: −
- Clonal growth [6]: ++
- Clonal growth [7]: ++
- Clonal growth [8]: −
- Clonal growth [9]: ++
- Clonal growth [10]: −
- Clonal inhibition by 4-OH-OPB analogues, summary of Exp 22-25 (listed as # 10): complete inhibition of growth in sparsely seeded areas

Molecule: CCCCC1(O)C(=O)N(c2ccccc2)N(c2ccccc2)C1=O [#11, 4-butyl-4-hydoxy-1,2-diphenyl-3,5-pyrazolidnedione]
- Clonal growth, H: high density area of cell gradient, High (high concentration): ++(+)
- Clonal growth, L: low density area of cell gradient, High (high concentration): ++
- Clonal growth, H: high density area of cell gradient, Low (low concentration): ++
- Clonal growth, L: low density area of cell gradient, Low (low concentration): ++
- Clonal growth, H: high density area of cell gradient, Medium (medium concentration): ++
- Clonal growth, L: low density area of cell gradient, Medium (medium concentration): ++
- Effect on clonal growth (Exp 25, 48 hours incubation): did not show any growth inhibition; also recorded: high concentration might stimulate growth in densely seeded areas
- Clonal growth [11]: ++(+)
- Clonal growth [1]: ++
- Clonal growth [2]: ++
- Clonal growth [3]: ++
- Clonal growth [4]: ++
- Clonal growth [5]: ++
- Clonal growth (Summary Table 3 of analogue tests (experiments 22-25), H (high cell density), High concentration): ++(+)
- Clonal growth [6]: ++
- Clonal growth [7]: ++
- Clonal growth [8]: ++
- Clonal growth [9]: ++
- Clonal growth [10]: ++
- Clonal inhibition by 4-OH-OPB analogues, summary of Exp 22-25: possible stimulation at high concentration

Molecule: Cc1c2oc3c(C)ccc(C(=O)N[C@@H]4C(=O)N[C@H](C(C)C)C(=O)N5CCC[C@H]5C(=O)N(C)CC(=O)N(C)[C@@H](C(C)C)C(=O)O[C@@H]4C)c3nc-2c(C(=O)N[C@@H]2C(=O)N[C@H](C(C)C)C(=O)N3CCC[C@H]3C(=O)N(C)CC(=O)N(C)[C@@H](C(C)C)C(=O)O[C@@H]2C)c(N)c1=O [Actino-mycin D, Actinomycin D, reference compound] (I: T[dV]P[Sar][NMeV] / II: T[dV]P[Sar][NMeV]; ester I:1-I:C, II:1-II:C; linker I:N-II:N via Actinocin(9to1))
- Effect on clonal growth and toxicity (Exp 21): good, but probably no complete inhibition of clonal growth at low toxicity; also recorded: no absolute clonal inhibition of sparsely seeded cells; also recorded: There was signs of good, but not complete
- Clonal growth [12]: ++
- Clonal growth [13]: +
- Clonal growth [14]: +
- Clonal growth [15]: ++
- Clonal growth [16]: (+)
- Clonal growth, H high density area of cell gradient, High (high concentration): +
- Clonal growth, L low density area of cell gradient, High (high concentration): ((+))
- Clonal growth, H high density area of cell gradient, Low (low concentration): ++
- Clonal growth, L low density area of cell gradient, Low (low concentration): +
- Clonal growth, H high density area of cell gradient, Medium (medium concentration): ++
- Clonal growth, L low density area of cell gradient, Medium (medium concentration): (+)
- Effect on cell cloning in soft agar: Good, but not complete inhibition

Molecule: CN(C)c1nc(N(C)C)nc(N(C)C)n1 [Altretamine, reference compound]
- Effect on clonal growth (Exp 26): No effect on cell growth was observed; also recorded: carcinoma in mice. Altretamine had no effect
- Resulting clonal growth of treated cultures [17]: ++
- Resulting clonal growth of treated cultures [18]: ++
- Resulting clonal growth of treated cultures [19]: ++
- Resulting clonal growth of treated cultures [20]: ++
- Resulting clonal growth of treated cultures [21]: ++
- Resulting clonal growth of treated cultures [22]: ++
- Clonal growth, H high density area of cell gradient, High (high concentration): ++
- Clonal growth, L low density area of cell gradient, High (high concentration): ++
- Clonal growth, H high density area of cell gradient, Low (low concentration): ++
- Clonal growth, L low density area of cell gradient, Low (low concentration): ++
- Clonal growth, H high density area of cell gradient, Medium (medium concentration): ++
- Clonal growth, L low density area of cell gradient, Medium (medium concentration): ++
- Effect on cell cloning in soft agar: No effect

Molecule: Cn1cnc([N+](=O)[O-])c1Sc1ncnc2nc[nH]c12 [Azathioprin, reference compound]
- Effect on clonal growth (Exp 25, 48 hours incubation): no clonal inhibition or stimulation
- Clonal growth [11]: ++
- Clonal growth [1]: ++
- Clonal growth [2]: ++
- Clonal growth [3]: ++
- Clonal growth [4]: ++
- Clonal growth [5]: ++
- Clonal growth, H high density area of cell gradient, High (high concentration): ++
- Clonal growth, L low density area of cell gradient, High (high concentration): ++
- Clonal growth, H high density area of cell gradient, Low (low concentration): ++
- Clonal growth, L low density area of cell gradient, Low (low concentration): ++
- Clonal growth, H high density area of cell gradient, Medium (medium concentration): ++
- Clonal growth, L low density area of cell gradient, Medium (medium concentration): ++
- Effect on cell cloning in soft agar: No effect

Molecule: c1ccc2c(c1)cc1ccc3cccc4ccc2c1c34 [Benzo(a)pyrene, reference compound]
- Effect on clonal growth, high dose (Exp 26, 172800 S100T1 cells/well): increased clonability
- Resulting clonal growth of treated cultures [17]: ++
- Resulting clonal growth of treated cultures [18]: ++
- Resulting clonal growth of treated cultures [19]: ++
- Resulting clonal growth of treated cultures [20]: +++
- Resulting clonal growth of treated cultures [21]: ++
- Resulting clonal growth of treated cultures [22]: ++
- Clonal growth, H high density area of cell gradient, High (high concentration): ++
- Clonal growth, L low density area of cell gradient, High (high concentration): +++
- Clonal growth, H high density area of cell gradient, Low (low concentration): ++
- Clonal growth, L low density area of cell gradient, Low (low concentration): ++
- Clonal growth, H high density area of cell gradient, Medium (medium concentration): ++
- Clonal growth, L low density area of cell gradient, Medium (medium concentration): ++
- Effect on cell cloning in soft agar: Increased clonal growth at low density

Molecule: COc1cc2c(c(OC)c1OC)-c1ccc(OC)c(=O)cc1[C@@H](NC(C)=O)CC2 [Colchicin]
- Control of metastatic cells leaving tumour (ability of cells to leave a tumour, grow and infiltrate locally or grow in sparsely seeded areas, concluded from Exp 17): probably not
- Control of settlement of metastatic cells (single cells or very few cells spread to distant sites, concluded from Exp 17): partly
- Toxicity for body or dense cell populations (supposed main advantages or disadvantages if used in cancer treatment, concluded from Exp 17): none or small
- Tolerating long duration of treatment (supposed, if used in cancer treatment): yes

Molecule: O=P1(N(CCCl)CCCl)NCCCO1 (centres unmarked) [Cycloph. amide]
- Clonal growth after 48 hours incubation (Exp 19, high concentration, H: high cell density part of the gradient): ++
- Clonal growth after 48 hours incubation (Exp 19, low concentration (exact conc. only in figure), H: high cell density part of the gradient): ++(+)
- Clonal growth after 48 hours incubation (Exp 19, medium concentration, H: high cell density part of the gradient): ++(+)

Molecule: O=P1(N(CCCl)CCCl)NCCCO1 (centres unmarked) [Cyclophosphamide, reference compound]
- Effect on growth in densely and sparsely seeded areas [23]: no inhibition of growth in any of these areas; also recorded: No inhibition of clonal cell growth was
- Effect on growth in densely seeded areas [23]: stimulation of clonal growth probably was significant
- Effect on growth in densely and sparsely seeded areas (Exp 19, 120000 S100T1 cells/well, listed as cyclophosphamide): obtained, but cyclophosphamide stimulated
- Clonal growth after 48 hours incubation (Exp 19, high concentration, L: low cell density part of the gradient): ++
- Clonal growth after 48 hours incubation (Exp 19, low concentration, L: low cell density part of the gradient): ++
- Clonal growth after 48 hours incubation (Exp 19, medium concentration, L: low cell density part of the gradient): ++
- Clonal growth, H high density area of cell gradient, High (high concentration): ++
- Clonal growth, L low density area of cell gradient, High (high concentration): ++
- Clonal growth, H high density area of cell gradient, Low (low concentration): ++(+)
- Clonal growth, L low density area of cell gradient, Low (low concentration): ++
- Clonal growth, H high density area of cell gradient, Medium (medium concentration): ++(+)
- Clonal growth, L low density area of cell gradient, Medium (medium concentration): ++
- Effect on cell cloning in soft agar: When unactivated growth increased in

Molecule: Nc1ccn([C@@H]2O[C@H](CO)[C@@H](O)[C@@H]2O)c(=O)n1 [Cytarabin, reference compound]
- Effect on clonal growth and toxicity (Exp 21): significant toxic effect at dosage that showed significant inhibition of clonal growth; also recorded: incomplete inhibition and signs of toxicity
- Effect on clonal growth and toxicity (Exp 21, listed as Cytarabine): incomplete inhibition of clonal growth and significant toxicity
- Clonal growth [12]: ++
- Clonal growth [13]: (+)
- Clonal growth (Exp 21, High concentration, L: area with low cell density): (+)
- Clonal growth [14]: +
- Clonal growth [15]: ++
- Clonal growth [16]: +
- Clonal growth, H high density area of cell gradient, High (high concentration): (+)
- Clonal growth, L low density area of cell gradient, High (high concentration): (+)
- Clonal growth, H high density area of cell gradient, Low (low concentration): ++
- Clonal growth, L low density area of cell gradient, Low (low concentration): +
- Clonal growth, H high density area of cell gradient, Medium (medium concentration): ++
- Clonal growth, L low density area of cell gradient, Medium (medium concentration): +
- Effect on cell cloning in soft agar: Incomplete inhibition of clonal growth
